In brackets after ≈: the same amount, converted by molar mass.
How the values were obtained:
Aldose Reductase = Aldose Reductase (Homo sapiens, UniProt P15121); experiment: Aldose reductase enzymatic inhibition (micro plate assay, D-glyceraldehyde and NADPH, absorbance at 340 nm); assay type: biochemical; settings: D-glyceraldehyde and NADPH as substrate; 0.1 nm to 10 uM
Description: Aldose Reductase Enzymatic Inhibition:
All compounds and Zopolrestat were tested individually in a micro plate assay for AR inhibition using D-glyceraldehyde and NADPH as substrate and the absorbance changes at 340 nm was monitored. % Inhibition was calculated for ARIs at concentration ranging 0.1 nm to 10 uM.

[1] = Equilibrium solubility in phosphate buffer, pH 7.4; assay type: physicochemical; settings: aqueous buffer, thermodynamic from solid, phosphate buffer pH 7.4, shaken overnight at room temperature, LC-MS/MS
Description: Equilibrium Solubility in Phosphate Buffer, pH 7.4:
The equilibrium solubility of test articles was measured in pH 7.4 aqueous buffers. […] At least 1 mg of powder for each test article was combined with 1 mL of buffer to make a≥1 mg/mL mixture. These samples were shaken on a Thermomixer® overnight at room temperature. The samples were then centrifuged for 10 minutes at 10,000 rpm. […] Standard concentrations ranged from 1.0 μM to 1.0 nM.

physchem = settings: octanol/phosphate buffer, pH 7.4
Description: Octanol/Buffer Partition Coefficient (Log D) at pH 7.4:
The octanol/buffer partition coefficient of three test articles was measured at pH 7.4. The pH 7.4 buffer was prepared by combining 50 mL of 0.2 M solution of KH2PO4 with 150 mL of dH2O, and then adjusting to pH 7.4 with 10 N NaOH. In a single incubation, 15 μL of a 10 mM DMSO solution of each test article (100 μM) was added to test tubes which contained 0.75 mL of octanol and 0.75 mL of pH 7.4 phosphate buffer. Testosterone was also introduced to each tube as an internal control, also at a dosing concentration of 100 μM. These samples were gently mixed on a benchtop rotator for 1 hour at room temperature. The tubes were then removed from the rotator and the aqueous and organic phases were allowed to separate for 1 hour. An aliquot of the organic layer was taken and diluted 200-fold into a mixture of 1:1 buffer:acetonitrile (ACN). An aliquot of the aqueous layer was taken and diluted 2-fold, 10-fold, and 200-fold into a mixture of 1:1 buffer:ACN. All samples were assayed by LC-MS/MS using electrospray ionization.

[2] = positive control, octanol/buffer pH 7.4; cited from earlier work

Compound O=C(O)Cc1nn(Cc2cc3cc(Cl)ccc3o2)c(=O)c2cscc12 [Compound XXIV, 2-(3-((5-chlorobenzofuran-2-yl)methyl)-4-oxo-3,4-dihydrothieno[3,4-d]pyridazin-1-yl)acetic acid] has a melting point of 154 to 155 °C.

For O=C(O)Cc1nn(Cc2cc3ccccc3o2)c(=O)c2cscc12 [Compound XXVI, 2-(3-(benzofuran-2-ylmethyl)-4-oxo-3,4-dihydrothieno[3,4-d]pyridazin-1-yl)acetic acid], the IC50 (Aldose Reductase) was 57 nM, the melting point was 158 to 159 °C and the solubility [1] was 790 µg/mL (≈ 2320 µM). The logD (physchem) was -0.86.

For C[C@]12CC[C@H]3[C@@H](CCC4=CC(=O)CC[C@@]43C)[C@@H]1CC[C@@H]2O [Testosterone], the “Log D (published/known)” value [2] is given as 3.0-3.4.

Compound O=C(O)Cc1nn(Cc2nc3cc(Cl)ccc3s2)c(=O)c2cscc12 [Compound XX, 2-(3-((5-chlorobenzo[d]thiazol-2-yl)methyl)-4-oxo-3,4-dihydrothieno[3,4-d]pyridazin-1-yl)acetic acid] has an IC50 (Aldose Reductase) of 35 nM, a melting point of 184 to 185 °C and a solubility [1] of 590 µg/mL (≈ 1510 µM). The logD (physchem) was -0.35.

O=C(O)Cc1nn(Cc2nc3cc(C(F)(F)F)ccc3s2)c(=O)c2cscc12 [Compound XII, 2-(4-oxo-3-((5-(trifluoromethyl)benzo[d]thiazol-2-yl)methyl)-3,4-dihydrothieno[3,4-d]pyridazin-1-yl)acetic acid] showed a solubility [1] of 970 µg/mL (≈ 2280 µM) and a logD (physchem) of -0.09.

With O=C(O)Cc1nn(Cc2nc3cc(C(F)(F)F)ccc3s2)c(=O)c2c(Cl)sc(Cl)c12 [Compound VII, 2-(5,7-dichloro-4-oxo-3-((5-(trifluoromethyl)benzo[d]thiazol-2-yl)methyl)-3,4-dihydrothieno[3,4-d]pyridazin-1-yl)acetic acid] the melting point was 205 to 207 °C.

O=C(O)Cc1nn(Cc2nc3cc(F)ccc3s2)c(=O)c2cscc12 [Compound XIV, 2-(3-((5-fluorobenzo[d]thiazol-2-yl)methyl)-4-oxo-3,4-dihydrothieno[3,4-d]pyridazin-1-yl)acetic acid] showed an IC50 (Aldose Reductase) of 60 nM, a melting point of 172 to 173 °C and a solubility [1] of 650 µg/mL (≈ 1730 µM). It also gave a logD (physchem) of -0.87.

For O=C(O)Cc1nn(Cc2nc3ccccc3s2)c(=O)c2cscc12 [Compound XVI, 2-(3-(benzo[d]thiazol-2-ylmethyl)-4-oxo-3,4-dihydrothieno[3,4-d]pyridazin-1-yl)acetic acid], the melting point was 172 to 173 °C.

With CC(C)(C)OC(=O)Cc1nn(Cc2cc3cc(Cl)ccc3o2)c(=O)c2cscc12 [Compound XXIII, tert-butyl 2-(3-((5-chlorobenzofuran-2-yl)methyl)-4-oxo-3,4-dihydrothieno[3,4-d]pyridazin-1-yl)acetate] the melting point was 117 to 118 °C.
